Data published in patent publication US20230200390A1, “SELECTIVE HERBICIDES BASED ON SUBSTITUTED ISOXAZOLIN CARBOXAMIDES AND MEFENPYR-DIETHYL” (BAYER AKTIENGESELLSCHAFT, priority 2020, published 2023).

Legend:
Format in all cases: in vivo
[1] = system: spring wheat, TRZAS Triso; experiment: Tank-mix; post-emergence: crop damage by herbicide with/without safener mefenpyr-diethyl
Summary of the method: (§1)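 Visual percent crop damage (0–100 relative to untreated plants) assessed 1–3 weeks post-application. Plants in sandy loam were sprayed at the 1–3-leaf stage with herbicide with or without safener at several rates, water volume 300 l/ha.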

[2] = system: spring barley, HORVS Montoya; experiment: as above
Summary of the method: as §1

[3] = system: spring wheat, TRZAS Triso; experiment: Seed treatment with safener; post-emergence herbicide, crop damage; details: 21 DAT; for HER effect + SAF [%] (crop damage) / Reduction [%] / Reduction [Difference]: mefenpyr-diethyl 0.5 g a.i./kg seed; for HER effect [%] (crop damage, herbicide without safener): no safener
Summary of the method: (§2)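 Crop injury was rated visually in % at 10 and 21 days after post-emergence spraying at the 2-leaf stage. The herbicide was a WP in 300 l/ha water plus 1 l/ha MERO. Plants grew from seed either safener-coated at stated g a.i./kg rates via a milk-diluted slurry, or untreated.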

[4] = system: spring barley, HORVS Montoya; experiment: as above; details: for HER effect + SAF / Reduction [%] / Reduction [Difference]: mefenpyr-diethyl 0.5 g a.i./kg seed
Summary of the method: as §2

[5] = HER 1 g a.i./ha + mefenpyr-diethyl 50 g a.i./ha, 21 DAT
[6] = HER 1 g a.i./ha + mefenpyr-diethyl 50 g a.i./ha, 10 DAT
[7] = HER 4 g a.i./ha post-emergence, 21 DAT
[8] = HER 16 g a.i./ha post-emergence, 21 DAT
[9] = HER 32 g a.i./ha + mefenpyr-diethyl 100 g a.i./ha, 21 DAT
[10] = HER 8 g a.i./ha + mefenpyr-diethyl 50 g a.i./ha, 10 DAT
[11] = HER 32 g a.i./ha + mefenpyr-diethyl 100 g a.i./ha, 10 DAT
[12] = HER 8 g a.i./ha post-emergence, 10 DAT
[13] = HER 32 g a.i./ha post-emergence, 10 DAT
[14] = HER 2 g a.i./ha + mefenpyr-diethyl 50 g a.i./ha, 10 DAT
[15] = HER 2 g a.i./ha + mefenpyr-diethyl 50 g a.i./ha, 21 DAT
[16] = HER 2 g a.i./ha post-emergence, 21 DAT
[17] = HER 32 g a.i./ha post-emergence, 21 DAT

## CC1(C(=O)NC2C=CC(C(=O)O)C2)CC(c2cc(F)cc(F)c2)=NO1 (centres unmarked) [Example 1.36]
[1]; [5]
  HER effect + SAF: 20%
  Reduction [%]: 76%
  Reduction [Difference]: 65
[1]; herbicide alone 1 g a.i./ha, 21 DAT
  HER effect: 85%
[2]; [6]
  HER effect + SAF: 60%
  Reduction [%]: 25%
  Reduction [Difference]: 20
[2]; herbicide alone 1 g a.i./ha, 10 DAT
  HER effect: 80%
[3]; HER dose 1 g a.i./ha
  HER effect + SAF [%] (crop damage): 0%
  Reduction [%]: 100%
  Reduction [Difference]: 85
  HER effect [%] (crop damage, herbicide without safener): 85%
[3]; HER dose 4 g a.i./ha
  HER effect + SAF [%] (crop damage): 30%
  Reduction [%]: 68%
  Reduction [Difference]: 63
  HER effect [%] (crop damage, herbicide without safener): 93%
[3]; HER dose 16 g a.i./ha
  HER effect + SAF [%] (crop damage): 50%
  Reduction [%]: 47%
  Reduction [Difference]: 45
  HER effect [%] (crop damage, herbicide without safener): 95%
[4]; [7]
  HER effect + SAF: 50%
  Reduction [%]: 46%
  Reduction [Difference]: 43
[4]; [8]
  HER effect + SAF: 70%
  Reduction [%]: 26%
  Reduction [Difference]: 25
[4]; herbicide alone 4 g a.i./ha post-emergence, 21 DAT
  HER effect: 93%
[4]; herbicide alone 16 g a.i./ha post-emergence, 21 DAT
  HER effect: 95%

## COC(=O)C1CC(NC(=O)C2(OC)CC(c3cc(F)cc(F)c3)=NO2)CO1 (mixture of isomers) [Example 1.72]
[1]; [9]
  HER effect + SAF: 10%
  Reduction [%]: 83%
  Reduction [Difference]: 50
[1]; herbicide alone 32 g a.i./ha, 21 DAT
  HER effect: 60%
[2]; [10]
  HER effect + SAF: 0%
  Reduction [%]: 100%
  Reduction [Difference]: 30
[2]; [11]
  HER effect + SAF: 10%
  Reduction [%]: 80%
  Reduction [Difference]: 40
[2]; herbicide alone 8 g a.i./ha, 10 DAT
  HER effect: 30%
[2]; herbicide alone 32 g a.i./ha, 10 DAT
  HER effect: 50%
[3]; HER dose 8 g a.i./ha
  HER effect + SAF [%] (crop damage): 0%
  Reduction [%]: 100%
  Reduction [Difference]: 20
  HER effect [%] (crop damage, herbicide without safener): 20%
[3]; HER dose 32 g a.i./ha
  HER effect + SAF [%] (crop damage): 10%
  Reduction [%]: 83%
  Reduction [Difference]: 50
  HER effect [%] (crop damage, herbicide without safener): 60%
[4]; [12]
  HER effect + SAF: 0%
  Reduction [%]: 100%
  Reduction [Difference]: 30
[4]; [13]
  HER effect + SAF: 0%
  Reduction [%]: 100%
  Reduction [Difference]: 50
[4]; herbicide alone 8 g a.i./ha post-emergence, 10 DAT
  HER effect: 30%
[4]; herbicide alone 32 g a.i./ha post-emergence, 10 DAT
  HER effect: 50%

## COCCOC(=O)C1C=CC(NC(=O)C2(C)CC(c3cc(Cl)cc(C#N)c3)=NO2)C1 (centres unmarked) [Example 1.5]
[1]; [14]
  HER effect + SAF: 0%
  Reduction [%]: 100%
  Reduction [Difference]: 50
[1]; herbicide alone 2 g a.i./ha, 10 DAT
  HER effect: 50%
[2]; [15]
  HER effect + SAF: 0%
  Reduction [%]: 100%
  Reduction [Difference]: 20
[2]; herbicide alone 2 g a.i./ha, 21 DAT
  HER effect: 20%
[3]; HER dose 8 g a.i./ha
  HER effect + SAF [%] (crop damage): 10%
  Reduction [%]: 89%
  Reduction [Difference]: 80
  HER effect [%] (crop damage, herbicide without safener): 90%
[3]; HER dose 32 g a.i./ha
  HER effect + SAF [%] (crop damage): 30%
  Reduction [%]: 68%
  Reduction [Difference]: 65
  HER effect [%] (crop damage, herbicide without safener): 95%
[4]; [16]
  HER effect + SAF: 0%
  Reduction [%]: 100%
  Reduction [Difference]: 20
[4]; [17]
  HER effect + SAF: 60%
  Reduction [%]: 25%
  Reduction [Difference]: 20
[4]; herbicide alone 2 g a.i./ha post-emergence, 21 DAT
  HER effect: 20%
[4]; herbicide alone 32 g a.i./ha post-emergence, 21 DAT
  HER effect: 80%
